In patent publication US9481688B2, “(Thieno[2,3-b][1,5]benzoxazepin-4-yl)piperazin-1-yl compounds as dual activity H1 inverse agonists/5-HT2A antagonists” (Eli Lilly and Company, priority 2011, dated 2016):
Counter-ions that a name gives are not always drawn.

How the values were obtained:
[1] = molecular target: T1, human recombinant H1 receptor (Homo sapiens (Human), UniProt P35367); test: H1 competition binding assay ([3H]-Pyrilamine, SPA); details: dihydrochloride
Method: [^3H]-Pyrilamine binding experiments are carried out in SPA (scintillation proximity assay) 96-well format. Membranes used in this assay are prepared from HEK-293 cells stably expressing recombinant H1 receptor (human). The incubation is initiated by the addition of a mixture of WGA PVT SPA beads (1 mg/well, Perkin Elmer (MA, USA) RPNQ0001) and 3 μg membranes to assay buffer (67 mM Tris; pH 7.6) containing 3.5 nM [^3H]-Pyrilamine and varying concentrations of the test compound (10 point concentration response curves). Non-specific binding is determined in the presence of 10 μM Triprolidine. Samples are incubated for 4 hr. at room temperature (22° C.) and then read in a Microbeta Trilux.
Curves are evaluated using a 4-parameter logistic nonlinear equation to obtain the concentration of competitor causing 50% inhibition of radioligand binding (IC50). Equilibrium dissociation constants (Ki) are calculated according to the equation Ki=IC50/(1+L/Kd), where L equals the concentration of radioligand used in the experiment and Kd equals the equilibrium dissociation constant of the radioligand for the receptor, determined from standard saturation analysis or homologous competition experiments. Reported values for Ki, where n values are indicated, are shown as geometric mean±the standard error of the mean (SEM), with the number of replicate determinations indicated by n. […]

5-HT2B [2] = molecular target: T2, 5-HT2B (Homo sapiens (Human), UniProt P41595); test: 5-HT2B binding
From the text: (§1) Further, the compounds of the invention may be tested in binding assays and functional activity assays by well known methods for other physiologically important receptors such as, but not limited to, the hERG channel, other serotonin receptors (specifically 5-HT1B, 5-HT1D, receptors, lack of agonist activity at 5-HT2B receptors, 5-HT2C, 5-HT5, 5-HT6, and 5-HT7 receptors), dopaminergic receptors (specifically D1, D2, and D3), GABAA receptors, adrenergic receptors and monoamine transporters.

5-HT2B [3] = molecular target: T2, 5-HT2B; test: 5-HT2B agonist functional activity; assay type: biochemical
From the text: as §1

[4] = molecular target: recombinant 5-HT2C receptor (human) (Homo sapiens (Human), UniProt P28335); test: 5-HT2C competition binding assay ([125I]-DOI, SPA); details: dihydrochloride
Method: [^125I]-(±)DOI binding experiments are carried out in SPA 96-well format. Membranes used in this assay are prepared from AV-12 cells stably expressing recombinant 5-HT2C receptor (human). The incubation is initiated by the addition of a mixture of WGA PVT SPA beads (0.5 mg/well, Perkin Elmer (MA, USA), RPNQ0001) and 2.5 μg membranes to assay buffer (50 mM Tris-HCl, 10 mM MgCl2, 0.5 mM EDTA, 10 μM pargyline, 0.1% ascorbic acid, pH7.4) containing 0.2 nM [[^125I]-(±)DOI and varying concentrations of the test compound (10 point concentration response curves). Non-specific binding is determined in the presence of 20 μM 1-(1-Naphthyl) piperazine. Samples are incubated for 4 hr. at room temperature (22° C.) and then read in a Microbeta Trilux.
Curves are evaluated using a 4-parameter logistic nonlinear equation to obtain the concentration of competitor causing 50% inhibition of radioligand binding (IC50). Equilibrium dissociation constants (Ki) are calculated according to the equation Ki=IC50/(1+L/Kd), where L equals the concentration of radioligand used in the experiment and Kd equals the equilibrium dissociation constant of the radioligand for the receptor, determined from standard saturation analysis or homologous competition experiments. […]

Dopamine D1 = Dopamine D1 (Homo sapiens (Human), UniProt P21728); test: Dopamine D1 binding
From the text: as §1

Dopamine D3 = Dopamine D3 (Homo sapiens (Human), UniProt P35462); test: Dopamine D3 binding; details: dihydrochloride
From the text: as §1

5-HT7 = 5-HT7 (Homo sapiens (Human), UniProt P34969); test: 5-HT7 binding
From the text: as §1

Adrenergic alpha1B = Adrenergic alpha1B (Homo sapiens (Human), UniProt P35368); test: Adrenergic alpha1B binding
From the text: as §1

Adrenergic alpha2A = Adrenergic alpha2A (Homo sapiens (Human), UniProt P08913); test: Adrenergic alpha2A binding
From the text: as §1

5-HT2A Receptor [5] = molecular target: 5-HT2A Receptor (Rattus norvegicus (Rat), UniProt P14842); test: 5-HT2A receptor occupancy in vivo (MDL 100907 tracer); details: oral gavage, 1 hr. before tracer
From the text: (§2) J Neurosci Methods. […] Recording Environment. […] Relative humidity averages approximately 50%. […] Study Design and Dosing. […] Data Collection. […] Statistical Analysis.

[6] = molecular target: T1, human recombinant H1 receptor; test: H1 inverse agonism (IP1 accumulation in HEK293/hm H1 cells); assay type: cell-based; details: n=2
5-HT2A receptor [7] = molecular target: 5-HT2A receptor (Mus musculus (Mouse), UniProt P35363); test: Inhibition of DOI induced headshake activity; assay type: in vivo; details: 10 mg/kg PO, mice, 60 min. pre-treatment, read-out: inhibition of DOI induced headshake response
From the text: as §2

[8] = Plasma clearance in dog (intravenous); assay type: in vivo; details: male, Beagle, 1 mg/kg
Method: Male Beagle dogs (body weight range 10-12 kg) are obtained from Marshall Bioresources, USA. Test compound is administered intravenously in solution (1 mL/kg) in 20% Captisol® in 22.5 mM phosphate buffer, pH 2, at a final drug concentration of 1.0 mg/mL (free base equivalents). Blood samples are obtained from the jugular vein over 24 hr. Samples of plasma are obtained by centrifugation and stored frozen (−20° C.) prior to analysis.
Frozen plasma samples are thawed to room temperature for bioanalysis of concentrations of test compound. A related internal standard compound in acetonitrile/methanol (1:1, v/v) is added to all samples of plasma (1:1, v/v). The samples are centrifuged to remove precipitated protein prior to analysis. The supernatants are analysed by injection and rapid gradient elution on a Javelin Betasil C18 column (20×2.1 mm cartridge, Mobile phase A: Water/1 M NH4HCO3, 2000:10 v/v, Mobile Phase B: MeOH/1 M NH4HCO3, 2000:10 v/v). The eluted analytes are detected by LC-MS-MS analysis using a Sciex API 4000 triple quadrupole mass spectrometer. Concentrations of compound are determined from standards prepared and analysed under identical conditions. Clearance is calculated using non-compartmental analysis in Watson 7.4, Thermo Fisher Scientific, Inc.

T1 sequence (P35367 whole entry): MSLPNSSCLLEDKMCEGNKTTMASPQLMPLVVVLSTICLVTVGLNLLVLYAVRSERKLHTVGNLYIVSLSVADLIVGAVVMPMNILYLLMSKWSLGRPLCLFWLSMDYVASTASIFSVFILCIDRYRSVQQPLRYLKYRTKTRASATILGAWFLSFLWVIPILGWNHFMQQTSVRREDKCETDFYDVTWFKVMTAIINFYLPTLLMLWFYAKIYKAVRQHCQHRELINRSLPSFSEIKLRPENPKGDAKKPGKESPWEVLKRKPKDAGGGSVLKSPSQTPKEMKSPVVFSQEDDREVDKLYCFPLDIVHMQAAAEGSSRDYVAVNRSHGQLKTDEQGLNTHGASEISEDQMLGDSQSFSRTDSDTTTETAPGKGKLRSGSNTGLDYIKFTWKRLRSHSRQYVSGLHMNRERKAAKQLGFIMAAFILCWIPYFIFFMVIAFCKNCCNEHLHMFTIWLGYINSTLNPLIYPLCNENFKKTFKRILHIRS
T2 sequence (P41595 whole entry, species assumed): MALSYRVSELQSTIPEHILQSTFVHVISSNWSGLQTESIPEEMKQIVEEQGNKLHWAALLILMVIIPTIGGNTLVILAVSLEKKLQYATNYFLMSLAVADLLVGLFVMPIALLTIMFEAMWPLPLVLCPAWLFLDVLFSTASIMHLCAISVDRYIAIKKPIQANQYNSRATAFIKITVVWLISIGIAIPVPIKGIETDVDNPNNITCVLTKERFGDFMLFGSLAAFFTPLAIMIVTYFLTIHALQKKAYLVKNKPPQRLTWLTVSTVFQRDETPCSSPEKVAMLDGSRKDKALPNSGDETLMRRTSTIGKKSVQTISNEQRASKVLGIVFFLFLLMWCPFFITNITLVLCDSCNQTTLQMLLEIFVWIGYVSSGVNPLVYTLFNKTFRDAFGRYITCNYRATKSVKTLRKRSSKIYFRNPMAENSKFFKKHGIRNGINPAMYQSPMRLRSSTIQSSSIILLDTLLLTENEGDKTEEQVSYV
Dopamine D3, sequence (P35462 whole entry): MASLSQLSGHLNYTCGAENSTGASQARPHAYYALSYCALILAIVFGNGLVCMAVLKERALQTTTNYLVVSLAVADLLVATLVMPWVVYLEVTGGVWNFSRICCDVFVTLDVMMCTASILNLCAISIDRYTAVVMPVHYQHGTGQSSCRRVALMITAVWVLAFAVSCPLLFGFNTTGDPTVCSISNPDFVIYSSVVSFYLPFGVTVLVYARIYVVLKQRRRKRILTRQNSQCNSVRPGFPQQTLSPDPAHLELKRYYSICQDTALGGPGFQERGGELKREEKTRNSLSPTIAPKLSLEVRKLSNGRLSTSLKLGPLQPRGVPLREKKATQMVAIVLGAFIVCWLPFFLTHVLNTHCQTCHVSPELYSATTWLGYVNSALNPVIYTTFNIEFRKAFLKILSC
Adrenergic alpha2A, sequence (P08913 whole entry): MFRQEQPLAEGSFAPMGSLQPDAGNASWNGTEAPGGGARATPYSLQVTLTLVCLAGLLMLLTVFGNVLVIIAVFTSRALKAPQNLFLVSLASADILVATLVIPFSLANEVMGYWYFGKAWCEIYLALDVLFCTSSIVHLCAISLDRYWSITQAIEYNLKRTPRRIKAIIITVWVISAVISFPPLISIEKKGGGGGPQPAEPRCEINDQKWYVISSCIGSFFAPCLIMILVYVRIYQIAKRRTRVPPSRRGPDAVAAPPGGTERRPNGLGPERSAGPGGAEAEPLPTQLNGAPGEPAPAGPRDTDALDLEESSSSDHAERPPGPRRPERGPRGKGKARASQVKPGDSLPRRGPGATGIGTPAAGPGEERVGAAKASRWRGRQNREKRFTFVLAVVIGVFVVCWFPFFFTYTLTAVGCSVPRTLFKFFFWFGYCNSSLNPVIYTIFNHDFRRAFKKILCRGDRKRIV
Adrenergic alpha1B, sequence (P35368 whole entry): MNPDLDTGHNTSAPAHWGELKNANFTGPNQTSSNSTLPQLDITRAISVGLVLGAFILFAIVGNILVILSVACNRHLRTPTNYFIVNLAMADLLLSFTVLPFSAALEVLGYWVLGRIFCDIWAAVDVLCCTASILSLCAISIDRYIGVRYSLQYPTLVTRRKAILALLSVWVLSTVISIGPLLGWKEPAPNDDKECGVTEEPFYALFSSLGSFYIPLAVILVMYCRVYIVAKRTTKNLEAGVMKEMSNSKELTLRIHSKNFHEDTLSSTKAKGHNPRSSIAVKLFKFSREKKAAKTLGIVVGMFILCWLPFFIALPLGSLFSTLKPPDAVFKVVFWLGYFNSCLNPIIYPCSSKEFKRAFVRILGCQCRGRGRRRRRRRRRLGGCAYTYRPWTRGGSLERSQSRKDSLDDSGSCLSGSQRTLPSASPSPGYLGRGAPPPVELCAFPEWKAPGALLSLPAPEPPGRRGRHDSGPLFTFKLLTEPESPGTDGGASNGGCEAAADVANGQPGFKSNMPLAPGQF
Dopamine D1, sequence (P21728 whole entry): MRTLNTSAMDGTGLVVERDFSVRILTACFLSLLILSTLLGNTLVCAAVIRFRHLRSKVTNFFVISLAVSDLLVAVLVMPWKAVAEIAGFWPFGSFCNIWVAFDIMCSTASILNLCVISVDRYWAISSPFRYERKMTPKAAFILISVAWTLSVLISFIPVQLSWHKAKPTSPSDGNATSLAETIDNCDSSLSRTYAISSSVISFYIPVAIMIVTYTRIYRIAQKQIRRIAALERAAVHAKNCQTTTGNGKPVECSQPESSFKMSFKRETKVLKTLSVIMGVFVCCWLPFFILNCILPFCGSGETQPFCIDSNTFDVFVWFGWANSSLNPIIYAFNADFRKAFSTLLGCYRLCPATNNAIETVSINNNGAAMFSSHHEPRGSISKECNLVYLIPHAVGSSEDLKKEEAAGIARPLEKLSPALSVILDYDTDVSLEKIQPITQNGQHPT
recombinant 5-HT2C receptor (human), sequence (P28335 whole entry, looked up): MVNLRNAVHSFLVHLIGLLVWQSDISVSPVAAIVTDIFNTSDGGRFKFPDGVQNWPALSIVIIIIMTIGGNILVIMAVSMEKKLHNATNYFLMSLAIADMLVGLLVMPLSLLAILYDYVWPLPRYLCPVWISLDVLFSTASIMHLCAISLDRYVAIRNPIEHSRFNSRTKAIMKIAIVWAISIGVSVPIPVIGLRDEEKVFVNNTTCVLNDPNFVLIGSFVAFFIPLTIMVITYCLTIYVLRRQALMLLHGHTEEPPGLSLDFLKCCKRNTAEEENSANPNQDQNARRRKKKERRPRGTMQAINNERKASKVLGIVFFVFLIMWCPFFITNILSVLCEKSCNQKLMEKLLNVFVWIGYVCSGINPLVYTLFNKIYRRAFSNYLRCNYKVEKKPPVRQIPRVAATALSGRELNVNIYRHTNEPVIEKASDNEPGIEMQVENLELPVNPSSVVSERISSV
5-HT7, sequence (P34969 whole entry, species assumed): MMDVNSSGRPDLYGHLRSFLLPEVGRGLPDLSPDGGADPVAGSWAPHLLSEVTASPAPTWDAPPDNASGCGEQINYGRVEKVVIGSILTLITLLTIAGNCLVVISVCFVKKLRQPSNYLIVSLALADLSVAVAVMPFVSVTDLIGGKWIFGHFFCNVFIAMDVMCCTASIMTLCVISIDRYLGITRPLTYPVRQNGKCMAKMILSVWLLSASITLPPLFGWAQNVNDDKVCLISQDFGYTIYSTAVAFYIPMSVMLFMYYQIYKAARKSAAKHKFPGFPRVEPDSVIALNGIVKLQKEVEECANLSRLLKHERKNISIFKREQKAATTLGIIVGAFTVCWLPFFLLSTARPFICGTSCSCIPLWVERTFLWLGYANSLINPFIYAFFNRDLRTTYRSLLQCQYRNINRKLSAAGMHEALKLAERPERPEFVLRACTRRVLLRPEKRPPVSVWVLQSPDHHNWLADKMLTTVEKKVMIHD

Q: Which Ki [1] does the source give for `Cc1ccc2c(c1)Oc1sc(Cl)cc1C(N1CCN(CC(C)(C)C(=O)O)CC1)=N2` [Example 3, 3-[4-(2-chloro-8-methyl-thieno[2,3-b][1,5]benzoxazepin-4-yl)piperazin-1-yl]-2,2-dimethyl-propanoic acid dihydrochloride] here?
A: The Ki was 58.8 nM.

Q: What about the Ki (5-HT2B [2]) of the same compound?
A: The Ki was 121 nM.

Q: What about the EC50 (5-HT2B [3]) of the same compound?
A: The EC50 was > 10000 nM.

Q: And the Ki [4]?
A: Its Ki is 328 nM.

Q: What about the Ki (Dopamine D1) of the same compound?
A: Its Ki is 592 nM.

Q: And the Ki (Dopamine D3)?
A: The Ki was > 5680 nM.

Q: And the Ki (5-HT7)?
A: The Ki was > 2060 nM.

Q: And the Ki (Adrenergic alpha1B)?
A: The Ki was > 14700 nM.

Q: And the Ki (Adrenergic alpha2A)?
A: Its Ki is > 8990 nM.

Q: And the ED50 (5-HT2A Receptor [5])?
A: The ED50 was 0.09 mg/kg.

Q: What about the “suppression of constitutive activity (IP1), relative to Tripelennamine” value ([6]; at 1 μM) of the same compound?
A: Its value is 105%.

Q: And the “suppression of constitutive activity (IP1), relative to Tripelennamine” value ([6]; at 10 μM)?
A: Its value is 85%.

Q: What about the inhibition at 10 mg/kg (5-HT2A receptor [7]) of the same compound?
A: The inhibition at 10 mg/kg was 100%.

Q: And the clearance [8]?
A: Its clearance is 3.2 mL/min/kg.
